The subject of data set [1] is primary human erythroid cells. Description: AlamarBlue cell viability / proliferation assay. The settings on record: Table 3; primary human erythroid cells, 3 days, proliferation reduced by 50%.
The subject of the next data set is histone H4. Description: histone H4 acetylation by western blot. Format: cell-based, human. The settings on record: FIG. 6; for global acetylation status of histone H4 (total acH4): at IC50, 3 days. The source says: FIG. 6 is a graph showing the acetylation status of histone H4 in primary erythroid cells treating with HU, NaB, S51021 or SS-2394. […] Total histones were extracted by histone extraction buffer. Thirty microgram of histone extract was used for western blot analysis and immunobloted with antibody against histone H4 or acetylated histone H4. Lower panel: The signal intensity was quantified by an image-analyzing software. The intensity of mock control was set as 1. Data are shown as the mean±SEM, N=4.
After 3 days of compound treatment, total protein or histone of the drug-treated cells was extracted. Histone was extracted by histone extraction buffer (10 mM HEPES, 1.5 mM MgCl2, 10 mM KCl, 0.5 mM DTT, 1.5 mM PMSF and 0.2 N HCl) at 4° C. overnight then centrifuged at 13,000 rpm for 5 minutes and collected the supernatant. Thirty microgram of histone extracts were separated in 15% SDS-PAGE and blotted onto PVDF membrane. After blocking with 5% non-fat milk in TBST, the membrane was then incubated with primary antibody against total histone H4 or total acetyl histone H4 at 4° C. overnight. Total protein was extracted by modified RIPA (50 mM Tris-HCl pH7.8, 150 mM NaCl, 1% NP-40, 0.5% sodium deoxycholate, 0.1% SDS, 1 mM EGTA, 5 mM EDTA, 10 mM NaF, 1 mM NaV3O4 and 1× complete, EDTA-free Protease Inhibitor Cocktail). Thirty microgram of total protein extracts were separate by 10% SDS-PAGE and blotted onto PVDF membrane. After blocking with 5% non-fat milk in TBST, the membrane was incubated with primary antibody against BCL11A, p38, p-p38, γ-globin or β-actin at 4° C. overnight. […]
Several HDACi, such as NaB, apicidin, and TSA, have been reported to function as HbF-inducing agents. […] To realize whether the epigenetic modification of histone H4 is manipulated by S51021 or SS-2394 treatment, primary human adult erythroid cells were treated with S51021, SS-2394, HU, or NaB for 3 days, and the acetylation status of cellular histone H4 was then analyzed (FIG. 6).

In a further data set the test system is NF-E4. As to the kind of experiment: NF-E4 mRNA level by relative quantitative RT-PCR. The format is cell-based, human. As to conditions: FIG. 4A; at IC50, 3 days, relative to mock. The method, then:
(§1) FIGS. 4A-4D are graphs showing the expression profiles of the γ globin gene and HbF-related regulators after compounds treatment in the primary human erthroid cells. […] Data are presented as the relative expression level in mean±SEM, N=8. […] Upper panel: For detection of the induction level of γ globin, fifty microgram of total cell lysate was analyzed by western blot analysis using antibody against γ globin, or β-actin. Lower panel: The signal intensity was quantified by an image-analyzing software. The intensity of γ globin expression levels of mock control was set as 1. Data are shown as the mean±SEM, N=5. […] Lower panel: The signal was quantified by an image-analyzing software. […] Total RNA was extracted, and the expression level of γ globin gene was analyzed by relative quantitative RT-PCR. […]
(§2) After 3 days of drug-treatment, the total RNA was extracted by RNA Spin mini kit (Ge-Healthcare) and reverse-transcription was performed by using superscript II (Invitrogen) followed the manufactors instruction. Quantitative PCR was performed on LightCycler with using STBR green master mix followed the manufactors instruction (Roche). The absolute quantitative RT-PCR was calculated by the standard curve with supplying a known copy number of plasmids. The relative quantitative RT-PCR was normalized to the expression levels of the β-actin and compared to the mock control. […]

The next data set concerns β globin. Description: absolute quantitative RT-PCR, proportion of β globin mRNA. Format: cell-based. The settings on record: primary human erythroid cells, at IC50, 3 days; mock 88.8%. Here is the method:
(§3) After 3 days of drug-treatment, the total RNA was extracted by RNA Spin mini kit (Ge-Healthcare) and reverse-transcription was performed by using superscript II (Invitrogen) followed the manufactors instruction. Quantitative PCR was performed on LightCycler with using STBR green master mix followed the manufactors instruction (Roche). The absolute quantitative RT-PCR was calculated by the standard curve with supplying a known copy number of plasmids. The relative quantitative RT-PCR was normalized to the expression levels of the β-actin and compared to the mock control.
(§4) To evaluate the specificity of S51021, SS-2394, HU, and NaB in mediating globin genes activation, the amounts of individual P3-liked globin mRNAs were measured by absolute quantitative RT-PCR.
(§5) The primary human erythroid cells were treated with HU (145.9 μM), NaB (221.6 μM), S51021 (21.8 μM) or SS2394 (2.3 μM) for 3 days, and the expression levels of each globin mRNA were estimated by absolute quantitative RT-PCR analysis. The proportions of individual 3-like globin chains among the total 3-like globin mRNA are shown. Data are presented as the mean±SEM, N=3.

The next data set has as its system ε globin. As to the kind of experiment: absolute quantitative RT-PCR, proportion of ε globin mRNA. The format is cell-based. The settings on record: primary human erythroid cells, at IC50, 3 days; mock 0.0%. Here is the method: as §3, §4, §5
Data set [2] in a line: solubility in DMSO and H2O. The settings on record: water; H2O; read-out: solubility H2O. Format: physicochemical.
For data set [3], the system named is BCL11A. Description: BCL11A protein by western blot. The format is cell-based, human. As to conditions: FIG. 4C, at IC50, 3 days. Here is the method: FIGS. 4A-4D are graphs showing the expression profiles of the γ globin gene and HbF-related regulators after compounds treatment in the primary human erthroid cells. […] Data are presented as the relative expression level in mean±SEM, N=8. […] Upper panel: For detection of the induction level of γ globin, fifty microgram of total cell lysate was analyzed by western blot analysis using antibody against γ globin, or β-actin. Lower panel: The signal intensity was quantified by an image-analyzing software. The intensity of γ globin expression levels of mock control was set as 1. Data are shown as the mean±SEM, N=5. […] Upper panel: For detection of the expression level of BCL11A, thirty microgram of total protein was separated by SDS-PAGE electrophoresis, transferred to PVDF membrane, and immunobloted with antibody against BCL11A and β-actin. Lower panel: The signal was quantified by an image-analyzing software. The intensity of the mock control BCL11A levels were set as 1. Data are shown as the mean±SEM, N=5. FIG. 4D is a graph showing that the HU-nonresponding primary human erythroid cells were treated with HU (145.9 μM), NaB (221.6 μM), S51021 (21.8 μM) or SS-2394 (2.3 μM) for 3 days. Total RNA was extracted, and the expression level of γ globin gene was analyzed by relative quantitative RT-PCR. Data are shown as the mean±SEM, N=3. […]
Background: A western blot detects proteins with antibodies after separation by electrophoresis.

Data set [4] deals with BCL11A. As to the kind of experiment: BCL11A mRNA level by relative quantitative RT-PCR. The format is cell-based, human. As to conditions: FIG. 4A; at IC50, 3 days, relative to mock. Here is the method:
as §1, §2

Data on two compounds can be found in patent US20170290820A1, “METHODS AND COMPOSITIONS FOR TREATING BETA-THALASSEMIA AND SICKLE CELL DISEASE” (Academia Sinica, priority 2013, published 2017).

One may read the IC50 as the concentration that gives 50% inhibition. One may read the solubility as how much of the substance goes into solution per volume. For the compound `NC(=O)NO` [HU, hydroxyurea], the IC50 in data set [1] was 146 µM. In the data set on histone H4, the “histone deacetylase inhibitor or not (conclusion from acH4)” value is listed as “not histone deacetylase inhibitors” and the “global acetylation status of histone H4 (total acH4)” value is reported as “not dramatically alternated”. In addition, in the data set on NF-E4, the “expression level of NF-E4” value came out at 0.6 folds. Also, the “β globin proportion of total β-like globin mRNA” value with β globin was 84.2 ± 1.3%. For the same compound, in the data set with ε globin, the “ε globin proportion of total β-like globin mRNA” value amounted to 0.1 ± 0.0%. In addition, in data set [2], the solubility was over 100 mM.
Consider `CCCC(=O)[O-].[Na+]` [NaB, sodium butyrate], for which the BCL11A protein entry in the data set on BCL11A [3] was “significant reduction”. Besides, in the data set with BCL11A [4], the “expression level of BCL11A mRNA” value came to 0.6 folds. The compound also came in with an IC50 in data set [1] of 222 µM. The “global acetylation status of histone H4 (total acH4)” value in the data set with histone H4 is “significantly enhanced”. Moreover, the “expression level of NF-E4” value with NF-E4 was determined as 0.6 folds. Further, the “β globin proportion of total β-like globin mRNA” value in the data set with β globin is 87.4 ± 1.0%. Moreover, the “ε globin proportion of total β-like globin mRNA” value in the data set with ε globin is recorded as 0.1 ± 0.0%.
